Results: patent US20230093099A1, “COMPOUNDS AND METHODS OF TREATING CANCERS” (CULLGEN (SHANGHAI), INC., priority 2019, published 2023)

Tested on: RS4;11 cells
Assay: Cell viability assay (CellTiter-Glo) in RS4;11 cells
Format: cell-based
Details: Homo sapiens, 72 h; RS4;11 ALL cells treated for three days; read-out: cell viability inhibition IC50
Protocol: Specific exemplary heterobifunctional compounds were first characterized using cell viability assays. RS4;11 ALL cells were treated with bifunctional degraders for three days. The IC50 values ranged from 2 nM to over 10 uM.
MV4;11, RS4;11, Kasumi-1, HEL and other cells were treated with NVP-BSK805, TG101209 or selected degraders for 3 days at indicated concentrations following a 3-fold serial dilution.
HEL, RS4;11, MV4;11, Kasumi-1 and other cells were cultured at 37° C. with 5% CO2 in RPMI 1640 or DMEM Medium supplemented with 10% fetal bovine serum. Cells were authenticated using the short tandem repeat (STR) assays. Mycoplasma test results were negative.
Cells were seeded at a density of 5000 cells per well in 96-well assay plates and treated with test compounds following a 8-point or 12-point 3-fold serial dilution. Three days later, cell viability was determined using the CellTiter-Glo assay kit according to the manufacturer's instructions. The dose-response curves were determined and IC50 values were calculated using the GraphPad Prism software following a nonlinear regression (least squares fit) method.

SMILES	IC50
Cc1cnc(Nc2ccc(N3CCN(C(=O)CCCCCCCNc4ccc5c(c4)C(=O)N(C4CCC(=O)NC4=O)C5=O)CC3)cc2)nc1Nc1cccc(S(=O)(=O)NC(C)(C)C)c1 (stereo not drawn) [JA-231, N-(tert-butyl)-3-((2-((4-(4-(8-((2-(2,6-dioxopiperidin-3-yl)-1,3-dioxoisoindolin-5-yl)amino)octanoyl)piperazin-1-yl)phenyl)amino)-5-methylpyrimidin-4-yl)amino)benzenesulfonamide]	< 0.1 µM

Same assay, conditions: Homo sapiens, 72 h; RS4;11 cells; cell viability, 3 days, CellTiter-Glo; read-out: IC50

SMILES	IC50
Cc1cnc(Nc2ccc(N3CCN(CC(=O)NCCNc4cccc5c4C(=O)N(C4CCC(=O)NC4=O)C5=O)CC3)cc2)nc1Nc1cccc(S(=O)(=O)NC(C)(C)C)c1 (stereo not drawn) [JA-090, 2-(4-(4-((4-((3-(N-(tert-Butyl)sulfamoyl)phenyl)amino)-5-methylpyrimidin-2-yl)amino)phenyl)piperazin-1-yl)-N-(2-((2-(2,6-dioxopiperidin-3-yl)-1,3-dioxoisoindolin-4-yl)amino)ethyl)acetamide]	3.48 µM
Cc1cnc(Nc2ccc(N3CCN(CC(=O)NCCCC(=O)N[C@H](C(=O)N4C[C@H](O)C[C@H]4C(=O)NCc4ccc(-c5scnc5C)cc4)C(C)(C)C)CC3)cc2)nc1Nc1cccc(S(=O)(=O)NC(C)(C)C)c1 [JA-099, (2S,4R)-1-((S)-2-(4-(2-(4-(4-((4-((3-(N-(tert-Butyl)sulfamoyl)phenyl)amino)-5-methylpyrimidin-2-yl)amino)phenyl)piperazin-1-yl)acetamido)butanamido)-3,3-dimethylbutanoyl)-4-hydroxy-N-(4-(4-methylthiazol-5-yl)benzyl)pyrrolidine-2-carboxamide]	3.7 µM
Cc1ncsc1-c1ccc(CNC(=O)[C@@H]2C[C@@H](O)CN2C(=O)[C@@H](NC(=O)CCCCCNC(=O)CN2CCC(n3cc(-c4cnc5cccc(-c6cc(F)c(CN7CCOCC7)c(F)c6)c5n4)cn3)CC2)C(C)(C)C)cc1 [JA-164, (2S,4R)-1-((S)-2-(6-(2-(4-(4-(8-(3,5-Difluoro-4-(morpholinomethyl)phenyl)quinoxalin-2-yl)-1H-pyrazol-1-yl)piperidin-1-yl)acetamido)hexanamido)-3,3-dimethylbutanoyl)-4-hydroxy-N-(4-(4-methylthiazol-5-yl)benzyl)pyrrolidine-2-carboxamide]	> 10 µM
CS(=O)(=O)c1ccc(-c2cccc3nc(Nc4ccc(N5CCN(CC(=O)NCCOCCOCCOCCOCCNc6cccc7c6C(=O)N(C6CCC(=O)NC6=O)C7=O)CC5)cc4)nn23)cc1 (stereo not drawn) [JA-114, N-(14-((2-(2,6-Dioxopiperidin-3-yl)-1,3-dioxoisoindolin-4-yl)amino)-3,6,9,12-tetraoxatetradecyl)-2-(4-(4-((5-(4-(methylsulfonyl)phenyl)-[1,2,4]triazolo[1,5-a]pyridin-2-yl)amino)phenyl)piperazin-1-yl)acetamide]	> 10 µM
Cc1cnc(Nc2ccc(N3CCN(C(=O)CCCCCCCNc4ccc5c(c4)C(=O)N(C4CCC(=O)NC4=O)C5=O)CC3)cc2)nc1Nc1cccc(S(=O)(=O)NC(C)(C)C)c1 (stereo not drawn) [JA-231, N-(tert-butyl)-3-((2-((4-(4-(8-((2-(2,6-dioxopiperidin-3-yl)-1,3-dioxoisoindolin-5-yl)amino)octanoyl)piperazin-1-yl)phenyl)amino)-5-methylpyrimidin-4-yl)amino)benzenesulfonamide]	0.0802 µM
Cc1cnc(Nc2ccc(N3CCN(C(=O)CCCCCCNc4cccc5c4C(=O)N(C4CCC(=O)NC4=O)C5=O)CC3)cc2)nc1Nc1cccc(S(=O)(=O)NC(C)(C)C)c1 (stereo not drawn) [JA-015, N-(tert-Butyl)-3-((2-((4-(4-(7-((2-(2,6-dioxopiperidin-3-yl)-1,3-dioxoisoindolin-4-yl)amino)heptanoyl)piperazin-1-yl)phenyl)amino)-5-methylpyrimidin-4-yl)amino)benzenesulfonamide]	> 10 µM
CS(=O)(=O)c1ccc(-c2cccc3nc(Nc4ccc(N5CCN(CC(=O)NCCOCCOCCOCCOCCOCCNc6ccc7c(c6)C(=O)N(C6CCC(=O)NC6=O)C7=O)CC5)cc4)nn23)cc1 (stereo not drawn) [JA-211, N-(17-((2-(2,6-Dioxopiperidin-3-yl)-1,3-dioxoisoindolin-5-yl)amino)-3,6,9,12,15-pentaoxaheptadecyl)-2-(4-(4-((5-(4-(methylsulfonyl)phenyl)-[1,2,4]triazolo[1,5-a]pyridin-2-yl)amino)phenyl)piperazin-1-yl)acetamide]	> 10 µM
Cc1ncsc1-c1ccc(CNC(=O)[C@@H]2C[C@@H](O)CN2C(=O)[C@@H](NC(=O)COCCOCCOCCOCCOCC(=O)N2CCC(n3cc(-c4cnc5cccc(-c6cc(F)c(CN7CCOCC7)c(F)c6)c5n4)cn3)CC2)C(C)(C)C)cc1 [JA-055, (2S,4R)-1-[(2S)-2-[[2-[2-[2-[2-[2-[2-[4-[4-[8-[3,5-Difluoro-4-(morpholinomethyl)phenyl]quinoxalin-2-yl]pyrazol-1-yl]-1-piperidyl]-2-oxo-ethoxy]ethoxy]ethoxy]ethoxy]ethoxy]acetyl]amino]-3,3-dimethyl-butanoyl]-4-hydroxy-N-[[4-(4-methylthiazol-5-yl)phenyl]methyl]pyrrolidine-2-carboxamide]	> 10 µM
CS(=O)(=O)c1ccc(-c2cccc3nc(Nc4ccc(N5CCN(CC(=O)NCCOCCOCCOCCOCCNc6ccc7c(c6)C(=O)N(C6CCC(=O)NC6=O)C7=O)CC5)cc4)nn23)cc1 (stereo not drawn) [JA-206, N-(14-((2-(2,6-Dioxopiperidin-3-yl)-1,3-dioxoisoindolin-5-yl)amino)-3,6,9,12-tetraoxatetradecyl)-2-(4-(4-((5-(4-(methylsulfonyl)phenyl)-[1,2,4]triazolo[1,5-a]pyridin-2-yl)amino)phenyl)piperazin-1-yl)acetamide]	> 10 µM
CS(=O)(=O)c1ccc(-c2cccc3nc(Nc4ccc(N5CCN(C(=O)CCCCCOc6ccc7c(c6)CN(C6CCC(=O)NC6=O)C7=O)CC5)cc4)nn23)cc1 (stereo not drawn) [JA-261, 3-(5-((6-(4-(4-((5-(4-(methylsulfonyl)phenyl)-[1,2,4]triazolo[1,5-a]pyridin-2-yl)amino)phenyl)piperazin-1-yl)-6-oxohexyl)oxy)-1-oxoisoindolin-2-yl)piperidine-2,6-dione]	0.0328 µM
CS(=O)(=O)c1ccc(-c2cccc3nc(Nc4ccc(N5CCN(C(=O)CCCCCCn6c(=O)n(C7CCC(=O)NC7=O)c7ccccc76)CC5)cc4)nn23)cc1 (stereo not drawn) [JA-281, 3-(3-(7-(4-(4-((5-(4-(Methylsulfonyl)phenyl)-[1,2,4]triazolo[1,5-a]pyridin-2-yl)amino)phenyl)piperazin-1-yl)-7-oxoheptyl)-2-oxo-2,3-dihydro-1H-benzo[d]imidazol-1-yl)piperidine-2,6-dione]	> 0.5 µM
Cc1cnc(Nc2ccc(N3CCN(C(=O)CCOCCOCCOCCOCCOCCNc4cccc5c4C(=O)N(C4CCC(=O)NC4=O)C5=O)CC3)cc2)nc1Nc1cccc(S(=O)(=O)NC(C)(C)C)c1 (stereo not drawn) [JA-021]	0.94 µM
Cn1c(=O)n(C2CCC(=O)NC2=O)c2cccc(NCCCCC(=O)N3CCC(n4cc(-c5cnc6cccc(-c7cc(F)c(CN8CCOCC8)c(F)c7)c6n5)cn4)CC3)c21 (stereo not drawn) [JA-286, 3-(4-((5-(4-(4-(8-(3,5-Difluoro-4-(morpholinomethyl)phenyl)quinoxalin-2-yl)-1H-pyrazol-1-yl)piperidin-1-yl)-5-oxopentyl)amino)-3-methyl-2-oxo-2,3-dihydro-1H-benzo[d]imidazol-1-yl)piperidine-2,6-dione]	> 0.5 µM
O=C1CCC(N2C(=O)c3ccc(NCCOCCOCCOCCC(=O)N4CCC(n5cc(-c6cnc7cccc(-c8cc(F)c(CN9CCOCC9)c(F)c8)c7n6)cn5)CC4)cc3C2=O)C(=O)N1 (stereo not drawn) [JA-184, 5-((2-(2-(2-(3-(4-(4-(8-(3,5-Difluoro-4-(morpholinomethyl)phenyl)quinoxalin-2-yl)-1H-pyrazol-1-yl)piperidin-1-yl)-3-oxopropoxy)ethoxy)ethoxy)ethyl)amino)-2-(2,6-dioxopiperidin-3-yl)isoindoline-1,3-dione]	9.99 µM
